The values that follow come from PubChem BioAssay AID248 (DTP/NCI, 2004).

This experiment deals with L1210 leukemia ip in BDF1 mice, survival T/C. In words: NCI In Vivo Anticancer Drug Screen. Data for tumor model L1210 Leukemia (intraperitoneal) in B6D2F1 (BDF1) mice. The following applies: endpoint: mean survival time, higher = longer survival. Summed up:
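Tumor cells were implanted, animals were treated, and survival was followed. The result divides the treated measurement by the vehicle-control measurement.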

Where [1] appears, read: dose: 100.0 mg/kg/injection, schedule: Q04DX003 (ip), vehicle: Klucel (hydroxypropylcellulose) (HPC).
[2] abbreviates: dose: 200.0 mg/kg/injection, schedule: Q04DX003 (ip), vehicle: Klucel (hydroxypropylcellulose) (HPC).
[3] abbreviates: dose: 400.0 mg/kg/injection, schedule: Q04DX003 (ip), vehicle: Klucel (hydroxypropylcellulose) (HPC).
Setting [4] is: dose: 100.0 mg/kg/injection, schedule: Q04DX003 (ip), vehicle: saline with Tween-80.
The mark [5] stands for this setting: dose: 200.0 mg/kg/injection, schedule: Q04DX003 (ip), vehicle: saline with Tween-80.
Where [6] appears, read: dose: 400.0 mg/kg/injection, schedule: Q04DX003 (ip), vehicle: saline with Tween-80.
Setting [7] is: dose: 100.0 mg/kg/injection, schedule: Q01DX001 (ip), vehicle: Klucel (hydroxypropylcellulose) (HPC).
The mark [8] stands for this setting: dose: 200.0 mg/kg/injection, schedule: Q01DX001 (ip), vehicle: Klucel (hydroxypropylcellulose) (HPC).
The mark [9] stands for this setting: dose: 400.0 mg/kg/injection, schedule: Q01DX001 (ip), vehicle: Klucel (hydroxypropylcellulose) (HPC).
Where [10] appears, read: dose: 100.0 mg/kg/injection, schedule: Q01DX001 (ip), vehicle: saline.
Where [11] appears, read: dose: 200.0 mg/kg/injection, schedule: Q01DX001 (ip), vehicle: saline.
[12] abbreviates: dose: 100.0 mg/kg/injection, schedule: Q04DX003 (ip), vehicle: saline.
The mark [13] stands for this setting: dose: 200.0 mg/kg/injection, schedule: Q04DX003 (ip), vehicle: saline.

The structures appear in SMILES notation. Toxic doses and inconclusive results are not listed. Square brackets hold non-standard residues; d marks the D form. Peptide text beside a SMILES is read from it. * marks the point of attachment. ξ: configuration not given here. Cbz = O=C(OCc1ccccc1)*; ξI = CCC(C)C(N)C(=O)O

For `O=C1C[C@@H](c2ccc(O)cc2)[C@@]2(O1)C(=O)O[C@H]([C@@H](O)CO)[C@@H]2O`, the T/C is 98 % of control (dose: 75.0 mg/kg/injection, schedule: Q01DX001 (ip), vehicle: saline); 96 % of control (dose: 75.0 mg/kg/injection, schedule: Q01DX009 (ip), vehicle: saline); 95 % of control (dose: 75.0 mg/kg/injection, schedule: Q04DX003 (ip), vehicle: saline); 96 % of control (dose: 150.0 mg/kg/injection, schedule: Q01DX001 (ip), vehicle: saline); 93 % of control (dose: 150.0 mg/kg/injection, schedule: Q01DX009 (ip), vehicle: saline); 98 % of control (dose: 150.0 mg/kg/injection, schedule: Q04DX003 (ip), vehicle: saline). The T/C (dose: 300.0 mg/kg/injection, schedule: Q01DX001 (ip), vehicle: saline) was 97 % of control; the T/C (dose: 300.0 mg/kg/injection, schedule: Q01DX009 (ip), vehicle: saline) is 100 % of control; the T/C (dose: 300.0 mg/kg/injection, schedule: Q04DX003 (ip), vehicle: saline) was 94 % of control.

Turning to `CCn1ncc2c(Nc3ccccc3)c(C(=O)c3ccccc3)cnc21`, the T/C is 93 % of control under setting [1], 97 % of control under setting [2] and 97 % of control under setting [3].

For `CCC(C)C(NC(=O)CNC(=O)OCc1ccccc1)C(=O)OC` (stereo not drawn) (Cbz-Gly-[ξI]-OMe), the T/C is, setting by setting: under setting [4], 101 % of control; under setting [5], 98 % of control; under setting [6], 96 % of control.

As for `Cc1cc(C)c(S(=O)(=O)C(=O)/C=N/N)c(C)c1`, the T/C runs as follows: under setting [7], 96 % of control; under setting [1], 98 % of control; under setting [8], 100 % of control; (dose: 200.0 mg/kg/injection, schedule: Q01DX009 (ip), vehicle: Klucel (hydroxypropylcellulose) (HPC)) 91 % of control; under setting [2], 98 % of control; under setting [9], 94 % of control. For the same compound, the T/C by setting is: (dose: 400.0 mg/kg/injection, schedule: Q01DX009 (ip), vehicle: Klucel (hydroxypropylcellulose) (HPC)) 93 % of control; under setting [3], 96 % of control.

As to `O=C(N/N=C\c1ccc(O)cc1O)c1ccco1`, the T/C reads like this: (dose: 100.0 mg/kg/injection, schedule: Q01DX001 (ip), vehicle: other) 90 % of control; (dose: 200.0 mg/kg/injection, schedule: Q01DX001 (ip), vehicle: other) 93 % of control; (dose: 400.0 mg/kg/injection, schedule: Q01DX001 (ip), vehicle: other) 96 % of control.

Turning to `O=C(O)CCN1CCN(c2cccc(Cl)c2)CC1`, the T/C reads like this: under setting [10], 96 % of control; under setting [11], 95 % of control.

As for `Cc1cc(C(C)(C)C)c(OC(=S)N(C)C)c(C(C)(C)C)c1`, the T/C was 96 % of control (dose: 12.5 mg/kg/injection, schedule: Q04DX003 (ip), vehicle: saline with Tween-80); 94 % of control (dose: 25.0 mg/kg/injection, schedule: Q04DX003 (ip), vehicle: saline with Tween-80); 100 % of control (dose: 50.0 mg/kg/injection, schedule: Q04DX003 (ip), vehicle: saline with Tween-80).

On to `CCC1CCCC1=O` (stereo not given), for which the T/C is, setting by setting: (dose: 50.0 mg/kg/injection, schedule: Q01DX001 (ip), vehicle: saline) 95 % of control; under setting [11], 90 % of control.

As for `O=C(/C=C/C(=O)N1CCOCC1)N1CCOCC1`, the T/C under setting [4] was 100 % of control, the T/C under setting [5] was 104 % of control and the T/C under setting [6] is 116 % of control.

With `CNc1ccc(S(=O)(=O)c2ccc(NC)c([N+](=O)[O-])c2)cc1[N+](=O)[O-]`, the T/C runs as follows: (dose: 100.0 mg/kg/injection, schedule: Q01DX005 (ip), vehicle: gum acacia) 93 % of control; (dose: 100.0 mg/kg/injection, schedule: Q01DX009 (ip), vehicle: gum acacia) 94 % of control; (dose: 200.0 mg/kg/injection, schedule: Q01DX005 (ip), vehicle: gum acacia) 93 % of control; (dose: 200.0 mg/kg/injection, schedule: Q01DX009 (ip), vehicle: gum acacia) 87 % of control; (dose: 400.0 mg/kg/injection, schedule: Q01DX005 (ip), vehicle: gum acacia) 96 % of control; (dose: 400.0 mg/kg/injection, schedule: Q01DX009 (ip), vehicle: gum acacia) 90 % of control.

Turning to `Cc1ccc(N=Nc2c(O)ccc3ccccc23)cc1`, the T/C runs as follows: (dose: 50.0 mg/kg/injection, schedule: Q01DX001 (ip), vehicle: carboxymethylcellulose (CMC)) 91 % of control; (dose: 100.0 mg/kg/injection, schedule: Q01DX001 (ip), vehicle: carboxymethylcellulose (CMC)) 91 % of control; (dose: 200.0 mg/kg/injection, schedule: Q01DX001 (ip), vehicle: carboxymethylcellulose (CMC)) 91 % of control; (dose: 400.0 mg/kg/injection, schedule: Q01DX001 (ip), vehicle: carboxymethylcellulose (CMC)) 91 % of control.

For `O=C1c2ccccc2-c2ccc(-c3ccc4c5c(cccc35)C(=O)c3ccccc3-4)c3cccc1c23`, the T/C is, setting by setting: under setting [1], 89 % of control; under setting [2], 95 % of control; under setting [3], 89 % of control.

For the compound `CC(C)(C)[CH2][Sn]([Cl])([CH2]C(C)(C)C)[CH2]C(C)(C)C`, the T/C (dose: 12.5 mg/kg/injection, schedule: Q04DX002 (ip), vehicle: saline with Tween-80) is 92 % of control.

As to `O=C(C[n+]1cccc(C(=O)Nc2ccccc2)c1)Nc1ccc(Cl)cc1`, the T/C reads like this: (dose: 50.0 mg/kg/injection, schedule: Q04DX003 (ip), vehicle: saline) 98 % of control; under setting [10], 96 % of control; under setting [12], 102 % of control; under setting [11], 89 % of control; under setting [13], 98 % of control.

As for `c1csc(C[N+]23CN4CN(CN(C4)C2)C3)c1`, the T/C is 92 % of control (dose: 100.0 mg/kg/injection, schedule: Q01DX009 (ip), vehicle: saline); 103 % of control (dose: 200.0 mg/kg/injection, schedule: Q01DX009 (ip), vehicle: saline); 101 % of control (dose: 400.0 mg/kg/injection, schedule: Q01DX009 (ip), vehicle: saline).

Regarding `Cc1cc(C)c(SC2c3ccccc3-c3ccccc32)c(C)c1`, the T/C (dose: 75.0 mg/kg/injection, schedule: Q01DX009 (ip), vehicle: saline with Tween-80) is 95 % of control; the T/C (dose: 150.0 mg/kg/injection, schedule: Q01DX009 (ip), vehicle: saline with Tween-80) is 102 % of control; the T/C (dose: 300.0 mg/kg/injection, schedule: Q01DX009 (ip), vehicle: saline with Tween-80) is 96 % of control.

Regarding `O=C1N(C[P+](c2ccccc2)(c2ccccc2)c2ccccc2)CCCN1C[P+](c1ccccc1)(c1ccccc1)c1ccccc1`, the T/C (dose: 1.56 mg/kg/injection, schedule: Q01DX009 (ip), vehicle: saline) is 96 % of control; the T/C (dose: 1.56 mg/kg/injection, schedule: Q04DX002 (ip), vehicle: saline) was 150 % of control; the T/C (dose: 3.12 mg/kg/injection, schedule: Q01DX005 (ip), vehicle: saline) is 100 % of control; the T/C (dose: 3.12 mg/kg/injection, schedule: Q01DX009 (ip), vehicle: saline) is 93 % of control; the T/C (dose: 3.12 mg/kg/injection, schedule: Q04DX002 (ip), vehicle: saline) was 88 % of control; the T/C (dose: 6.25 mg/kg/injection, schedule: Q01DX005 (ip), vehicle: saline) is 94 % of control. Moreover, the T/C (dose: 6.25 mg/kg/injection, schedule: Q01DX009 (ip), vehicle: saline) was 86 % of control and the T/C (dose: 6.25 mg/kg/injection, schedule: Q04DX002 (ip), vehicle: saline) is 95 % of control.

On to `CC(C)Cc1c(N)nc(=S)[nH]c1C(=O)O`, for which the T/C reads like this: under setting [7], 100 % of control; under setting [12], 100 % of control; under setting [8], 100 % of control; under setting [13], 94 % of control; under setting [9], 109 % of control; (dose: 400.0 mg/kg/injection, schedule: Q04DX003 (ip), vehicle: saline) 94 % of control.
